PubChem BioAssay AID1918998 (Molecular Pharmacology Branch, DTP, NCI, 2023)

System: 521955-158-R2-J5-PDC complex spheroid growth
Assay: Anticancer human tumor 521955-158-R2-J5-PDC patient-derived pancreatic carcinoma cell line growth inhibition [AhR]
Conditions: for IC50: curve of first compound; for viability, T/C: stronger effect = lower value
In short: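 Agents were dosed in half-log steps down from roughly clinical Cmax, or from 10 microM where Cmax was unknown, alone and with AhR antagonists. Read-out: percent test/control growth of tumor spheroids containing HUVEC and MSC stromal cells.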

[1] = second compound 0.1 µM, first compound 0.0316 µM
[2] = second compound 0.1 µM, first compound 0.1 µM
[3] = second compound 0.1 µM, first compound 0.316 µM
[4] = second compound 0.1 µM, first compound 1 µM
[5] = second compound 0.1 µM, first compound 3.16 µM
[6] = second compound 0.1 µM, first compound 10 µM
[7] = second compound 0.316 µM, first compound 0.0316 µM
[8] = second compound 0.316 µM, first compound 0.1 µM
[9] = second compound 0.316 µM, first compound 0.316 µM
[10] = second compound 0.316 µM, first compound 1 µM
[11] = second compound 0.316 µM, first compound 3.16 µM
[12] = second compound 0.316 µM, first compound 10 µM
[13] = second compound 1 µM, first compound 0.0316 µM
[14] = second compound 1 µM, first compound 0.1 µM
[15] = second compound 1 µM, first compound 0.316 µM
[16] = second compound 1 µM, first compound 1 µM
[17] = second compound 1 µM, first compound 3.16 µM
[18] = second compound 1 µM, first compound 10 µM
[19] = second compound 3.16 µM, first compound 0.0316 µM
[20] = second compound 3.16 µM, first compound 0.1 µM
[21] = second compound 3.16 µM, first compound 0.316 µM
[22] = second compound 3.16 µM, first compound 1 µM
[23] = second compound 3.16 µM, first compound 3.16 µM
[24] = second compound 3.16 µM, first compound 10 µM
[25] = second compound 10 µM, first compound 0.0316 µM
[26] = second compound 10 µM, first compound 0.1 µM
[27] = second compound 10 µM, first compound 0.316 µM
[28] = second compound 10 µM, first compound 1 µM
[29] = second compound 10 µM, first compound 3.16 µM
[30] = second compound 10 µM, first compound 10 µM
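For viability, T/C in this document: spheroids mix tumor cells with HUVEC endothelium and human MSC stroma; luminescence taken as viability surrogate after a week of drug exposure.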

SMILES	IC50 (second compound 0.1 µM)	IC50 (second compound 0.316 µM)	IC50 (second compound 1 µM)	IC50 (second compound 3.16 µM)	IC50 (second compound 10 µM)	viability, T/C [1]	viability, T/C [2]	viability, T/C [3]	viability, T/C [4]	viability, T/C [7]	viability, T/C [8]	viability, T/C [9]	viability, T/C [10]	viability, T/C [13]	viability, T/C [14]	viability, T/C [15]	viability, T/C [16]	viability, T/C [19]	viability, T/C [20]	viability, T/C [21]	also measured
COc1cc(C2c3cc4c(cc3C(OC3OC5COC(C)OC5C(O)C3O)C3COC(=O)C23)OCO4)cc(OC)c1O (stereo not given) + Cc1ccccc1N=Nc1ccc(NC(=O)c2ccnn2C)c(C)c1	755 nM	668 nM	1010 nM	880 nM	1580 nM	99.3%	78.2%	81.2%	39%	83.6%	108%	83.4%	31.9%	131%	97.3%	80%	49%	139%	118%	104%	viability, T/C [5]: 26%; viability, T/C [6]: 17.6%; viability, T/C [11]: 23.9%; viability, T/C [12]: 20%; viability, T/C [17]: 22.8%; viability, T/C [18]: 18.4%; viability, T/C [22]: 40.6%; viability, T/C [23]: 27.3%; viability, T/C [24]: 17.9%; viability, T/C [25]: 131%; viability, T/C [26]: 140%; viability, T/C [27]: 112%; viability, T/C [28]: 59.9%; viability, T/C [29]: 38.5%; viability, T/C [30]: 22.9%
CC(C)c1c(-c2ccccc2)nc2c(C#N)c[nH]n2c1=O + Cc1ccccc1N=Nc1ccc(NC(=O)c2ccnn2C)c(C)c1	> 10000 nM	> 10000 nM	> 10000 nM	> 10000 nM	> 10000 nM	98.1%	125%	80.3%	94.7%	115%	95.1%	110%	81.5%	88.7%	101%	102%	87.8%	128%	125%	127%	viability, T/C [5]: 81.2%; viability, T/C [6]: 97.8%; viability, T/C [11]: 82%; viability, T/C [12]: 81.6%; viability, T/C [17]: 92.6%; viability, T/C [18]: 97.8%; viability, T/C [22]: 114%; viability, T/C [23]: 114%; viability, T/C [24]: 114%; viability, T/C [25]: 141%; viability, T/C [26]: 130%; viability, T/C [27]: 132%; viability, T/C [28]: 123%; viability, T/C [29]: 114%; viability, T/C [30]: 103%
Nc1ncn(C2CC(O)C(CO)O2)c(=O)n1 (stereo not given) + Cc1ccccc1N=Nc1ccc(NC(=O)c2ccnn2C)c(C)c1	> 1000 nM	811 nM	> 1000 nM	> 1000 nM	> 1000 nM	92.4%	62.6%	55.5%	50.7%	86.6%	83.8%	61.9%	47.4%	96.6%	90.2%	94.2%	65.4%	110%	88.3%	104%	viability, T/C (second compound 0.1 µM, first compound 0.00316 µM): 79%; viability, T/C (second compound 0.1 µM, first compound 0.01 µM): 86.1%; viability, T/C (second compound 0.316 µM, first compound 0.00316 µM): 88.5%; viability, T/C (second compound 0.316 µM, first compound 0.01 µM): 104%; viability, T/C (second compound 1 µM, first compound 0.00316 µM): 90.5%; viability, T/C (second compound 1 µM, first compound 0.01 µM): 126%; viability, T/C (second compound 3.16 µM, first compound 0.00316 µM): 106%; viability, T/C (second compound 3.16 µM, first compound 0.01 µM): 120%; viability, T/C [22]: 67.1%; viability, T/C (second compound 10 µM, first compound 0.00316 µM): 138%; viability, T/C (second compound 10 µM, first compound 0.01 µM): 147%; viability, T/C [25]: 140%; viability, T/C [26]: 127%; viability, T/C [27]: 95.2%; viability, T/C [28]: 88%
